Where two headings read alike, the source gives them in different places.
Experiments:
HCV GT1a(H77) replicon = test: HCV replicon luciferase reporter assay, genotype 1a; assay type: cell-based, HCV genotype 1a; conditions: Hepatitis C virus, 72 h, HUH-7 cells, Renilla luciferase, 3 days incubation
Description: A stable HCV GT1a(H77) replicon luciferase reporter cell line (Yanagi M, Purcell RH, Emerson S U, et al. Transcripts from a single full-length cDNA clone of hepatitis C virus are infectious when directly transfected into the liver of a chimpanzee. Proc Natl Acad Sci USA 1997; 94(16):8738-8743) was generated as described previously for the genotype 1b(Con1) replicon luciferase cell line. The replicon construct was modified by introducing mutations into the genes encoding the NS3 helicase domain (proline replaced by leucine at position 1496) and NS5A (serine to isoleucine at position 2204) to improve replication in cell culture.
(§1) HCV replicon luciferase assays were developed to monitor the inhibitory effects of compounds described in the disclosure on HCV genotypes 1a and 1b viral replication. HUH-7 cells, constitutively expressing the HCV replicon, were grown in Dulbecco's Modified Eagle Media (DMEM) (Gibco-BRL) containing 10% Fetal calf serum (FCS) (Sigma) and 1 mg/mL G418 (Gibco-BRL). Compounds were serially diluted 3 folds in DMSO for a twenty-point titration and subsequently transferred to sterile 384-well tissue-culture treated plates (Corning cat #3571). The plates were then seeded with 50 μL of cells at a density of 3.0×10^3 cells/well in DMEM containing 4% FCS (final DMSO concentration at 0.5%). After 3 days incubation at 37° C., cells were analyzed for Renilla Luciferase activity using the EnduRen as substrate (Promega cat #E6485). The EnduRen substrate was diluted in DMEM and then added to the plates to a final concentration of 7.5 μM. The plates were incubated for 2 hrs at 37° C. and then read immediately for 30 seconds with Viewlux Imager (PerkinElmer) using a luminescence program. To assess cytotoxicity of compounds, CC50 values were generated by multiplexing the EnduRen-containing plates with Cell Titer-Blue (Promega, cat #G8082). Cell-Titer Blue (3 μL) was added to each well and incubated for 8 hrs at 37° C. The fluorescence signal from each well was read, with an excitation wavelength at 525/10 nm and an emission wavelength of 598/10 nm, using the Viewlux Imager.
(§2) The EC50 values for compounds were calculated by using a four-parameter logistic equation: y=A+[…])/(1+((C/x)^D))), where A and B denotes minimal and maximal % inhibition, respectively, C is the EC50, D is the hill slope and x represents compound concentration.

HCV GT1b(Con1) replicon = test: HCV replicon luciferase reporter assay, genotype 1b; assay type: cell-based, HCV genotype 1b; conditions: Hepatitis C virus, 72 h, HUH-7 cells, Renilla luciferase, 3 days incubation
Description: An HCV GT1b(Con1) replicon cell system was established as described by Lohmann V, Korner F, Koch J, Herian U, Theilmann L, Bartenschlager R., Science 285(5424):110-3 (1999) and modified to introduce a luciferase reporter (Krieger N, Lohmann V, and Bartenschlager R, J. Virol. 75(10):4614-4624 (2001)). cDNA encoding a humanized form of the Renilla luciferase gene, and a linker sequence fused directly to the 3′-end of the luciferase gene were introduced into the replicon construct using an Asc1 restriction site located in core, directly upstream of the neomycin marker gene. The adaptive mutation at position 1179 (serine to isoleucine) was also introduced (Blight K J, Kolykhalov, A A, Rice, C M, Science 290(5498):1972-1974). A stable cell line constitutively expressing this HCV replicon construct was generated by first linearizing plasmid DNAs with ScaI. RNA transcripts were synthesized in vitro using the T7 MegaScript transcription kit (Ambion, Austin, Tex.) according to manufacturer's directions. In vitro transcripts of the cDNA were transfected into the human hepatoma cell line, HUH-7. […] Resulting cell lines were characterized for positive and negative strand RNA production and protein production over time.
as §1, §2

Question: Which EC50 (HCV GT1a(H77) replicon; read-out: LE_1a (EC50, range)) does the source give for `CC(C)Oc1ccc(-c2cc(O[C@@H]3C[C@H]4C(=O)N[C@]5(C(=O)NS(=O)(=O)C6(C)CC6)C[C@H]5/C=C\CC[C@H](C)C[C@@H](C)[C@H](NC(=O)OC(C)(C)C(F)(F)F)C(=O)N4C3)cc(-n3cccn3)n2)cc1` [Compound 1014, 1,1,1-trifluoro-2-methylpropan-2-yl ((2R,6S,7R,9S,13aS,14aR,16aS,Z)-2-((2-(4-isopropoxyphenyl)-6-(1H-pyrazol-1-yl)pyridin-4-yl)oxy)-7,9-dimethyl-14a-(((1-methylcyclopropyl)sulfonyl)carbamoyl)-5,16-dioxo-1,2,3,5,6,7,8,9,10,11,13a,14,14a,15,16,16a-hexadecahydrocyclopropa[e]pyrrolo[1,2-a][1,4]diazacyclopentadecin-6-yl)carbamate] here?
Answer: 35 to 359 nM

Question: And the EC50 (HCV GT1b(Con1) replicon; read-out: LE_1b (EC50, range))?
Answer: 5.01 to 35 nM

Question: `Cc1cc(O[C@@H]2C[C@H]3C(=O)N[C@]4(C(=O)NS(=O)(=O)C5(C)CC5)C[C@H]4/C=C\CC[C@@H](C)C[C@@H](C)[C@H](NC(=O)OC(C)(C)C(F)(F)F)C(=O)N3C2)cc(-c2cncs2)n1` [Compound 1015, 1,1,1-trifluoro-2-methylpropan-2-yl ((2R,6S,7R,9R,13aS,14aR,16aS,Z)-7,9-dimethyl-2-((2-methyl-6-(thiazol-5-yl)pyridin-4-yl)oxy)-14a-(((1-methylcyclopropyl)sulfonyl)carbamoyl)-5,16-dioxo-1,2,3,5,6,7,8,9,10,11,13a,14,14a,15,16,16a-hexadecahydrocyclopropa[e]pyrrolo[1,2-a][1,4]diazacyclopentadecin-6-yl)carbamate] was tested. Which EC50 (HCV GT1a(H77) replicon; read-out: LE_1a (EC50, range)) did it give?
Answer: 5.01 to 35 nM

Question: And the EC50 (HCV GT1b(Con1) replicon; read-out: LE_1b (EC50, range))?
Answer: 5.01 to 35 nM

Question: With `Cc1cc(O[C@@H]2C[C@H]3C(=O)N[C@]4(C(=O)NS(=O)(=O)C5(C)CC5)C[C@H]4/C=C\CC[C@H](C)C[C@@H](C)[C@H](NC(=O)OC(C)(C)C(F)(F)F)C(=O)N3C2)cc(-c2cncs2)n1` [Compound 1016, 1,1,1-trifluoro-2-methylpropan-2-yl ((2R,6S,7R,9S,13aS,14aR,16aS,Z)-7,9-dimethyl-2-((2-methyl-6-(thiazol-5-yl)pyridin-4-yl)oxy)-14a-(((1-methylcyclopropyl)sulfonyl)carbamoyl)-5,16-dioxo-1,2,3,5,6,7,8,9,10,11,13a,14,14a,15,16,16a-hexadecahydrocyclopropa[e]pyrrolo[1,2-a][1,4]diazacyclopentadecin-6-yl)carbamate] as the molecule, how does the EC50 (HCV GT1a(H77) replicon; read-out: LE_1a (EC50, range)) read?
Answer: 35 to 359 nM

Question: What about the EC50 (HCV GT1b(Con1) replicon; read-out: LE_1b (EC50, range)) of the same molecule?
Answer: 35 to 359 nM

Question: How did the EC50 (HCV GT1a(H77) replicon; read-out: LE_1a (EC50)) turn out when `CC(C)Oc1ccc(-c2cc(O[C@@H]3C[C@H]4C(=O)N[C@]5(C(=O)NS(=O)(=O)C6(C)CC6)C[C@H]5/C=C\CC[C@@H](C)C[C@@H](C)[C@H](NC(=O)OC5(C(F)(F)F)CCCOC5)C(=O)N4C3)cc(-c3cncs3)n2)cc1` (stereo partly drawn) [Compound 1017, 3-(trifluoromethyl)tetrahydro-2H-pyran-3-yl ((2R,6S,7R,9R,13aS,14aR,16aS,Z)-2-((2-(4-isopropoxyphenyl)-6-(thiazol-5-yl)pyridin-4-yl)oxy)-7,9-dimethyl-14a-(((1-methylcyclopropyl)sulfonyl)carbamoyl)-5,16-dioxo-1,2,3,5,6,7,8,9,10,11,13a,14,14a,15,16,16a-hexadecahydrocyclopropa[e]pyrrolo[1,2-a][1,4]diazacyclopentadecin-6-yl)carbamate] was run?
Answer: 0.95 nM

Question: And the EC50 (HCV GT1a(H77) replicon; read-out: LE_1a (EC50, range))?
Answer: 0.51 to 1 nM

Question: And the EC50 (HCV GT1b(Con1) replicon; read-out: LE_1b (EC50))?
Answer: 0.82 nM

Question: And the EC50 (HCV GT1b(Con1) replicon; read-out: LE_1b (EC50, range))?
Answer: 0.51 to 1 nM

Question: How did the EC50 (HCV GT1a(H77) replicon; read-out: LE_1a (EC50, range)) turn out when `CC(C)Oc1ccc(-c2cc(O[C@@H]3C[C@H]4C(=O)N[C@]5(C(=O)NS(=O)(=O)C6(C)CC6)C[C@H]5/C=C\CC[C@H](C)C[C@@H](C)[C@H](NC(=O)OC5(C(F)(F)F)CCCOC5)C(=O)N4C3)cc(-c3cncs3)n2)cc1` (stereo partly drawn) [Compound 1018, 3-(trifluoromethyl)tetrahydro-2H-pyran-3-yl ((2R,6S,7R,9S,13aS,14aR,16aS,Z)-2-((2-(4-isopropoxyphenyl)-6-(thiazol-5-yl)pyridin-4-yl)oxy)-7,9-dimethyl-14a-(((1-methylcyclopropyl)sulfonyl)carbamoyl)-5,16-dioxo-1,2,3,5,6,7,8,9,10,11,13a,14,14a,15,16,16a-hexadecahydrocyclopropa[e]pyrrolo[1,2-a][1,4]diazacyclopentadecin-6-yl)carbamate] was run?
Answer: 5.01 to 35 nM

Question: What about the EC50 (HCV GT1b(Con1) replicon; read-out: LE_1b (EC50, range)) of the same molecule?
Answer: 1.01 to 5 nM

Question: For `CC(C)Oc1ccc(-c2cc(O[C@@H]3C[C@H]4C(=O)N[C@]5(C(=O)NS(=O)(=O)C6(C)CC6)C[C@H]5/C=C\CC[C@@H](C)C[C@@H](C)[C@H](NC(=O)OC(C)(C)C(F)(F)F)C(=O)N4C3)cc(-c3ncccn3)n2)cc1` [Compound 1019, 1,1,1-trifluoro-2-methylpropan-2-yl ((2R,6S,7R,9R,13aS,14aR,16aS,Z)-2-((2-(4-isopropoxyphenyl)-6-(pyrimidin-2-yl)pyridin-4-yl)oxy)-7,9-dimethyl-14a-(((1-methylcyclopropyl)sulfonyl)carbamoyl)-5,16-dioxo-1,2,3,5,6,7,8,9,10,11,13a,14,14a,15,16,16a-hexadecahydrocyclopropa[e]pyrrolo[1,2-a][1,4]diazacyclopentadecin-6-yl)carbamate], which EC50 (HCV GT1a(H77) replicon; read-out: LE_1a (EC50, range)) is on record?
Answer: 1.01 to 5 nM

Question: And the EC50 (HCV GT1b(Con1) replicon; read-out: LE_1b (EC50, range))?
Answer: 1.01 to 5 nM

Question: How did the EC50 (HCV GT1a(H77) replicon; read-out: LE_1a (EC50, range)) turn out when `CC(C)Oc1ccc(-c2cc(O[C@@H]3C[C@H]4C(=O)N[C@]5(C(=O)NS(=O)(=O)C6(C)CC6)C[C@H]5/C=C\CC[C@H](C)C[C@@H](C)[C@H](NC(=O)OC(C)(C)C(F)(F)F)C(=O)N4C3)cc(-c3ncccn3)n2)cc1` [Compound 1020, 1,1,1-trifluoro-2-methylpropan-2-yl ((2R,6S,7R,9S,13aS,14aR,16aS,Z)-2-((2-(4-isopropoxyphenyl)-6-(pyrimidin-2-yl)pyridin-4-yl)oxy)-7,9-dimethyl-14a-(((1-methylcyclopropyl)sulfonyl)carbamoyl)-5,16-dioxo-1,2,3,5,6,7,8,9,10,11,13a,14,14a,15,16,16a-hexadecahydrocyclopropa[e]pyrrolo[1,2-a][1,4]diazacyclopentadecin-6-yl)carbamate] was run?
Answer: 5.01 to 35 nM

Question: What about the EC50 (HCV GT1b(Con1) replicon; read-out: LE_1b (EC50, range)) of the same molecule?
Answer: 1.01 to 5 nM

Question: For `CC(C)Oc1ccc(-c2cc(O[C@@H]3C[C@H]4C(=O)N[C@]5(C(=O)NS(=O)(=O)C6(C)CC6)C[C@H]5/C=C\CC[C@@H](C)C[C@@H](C)[C@H](NC(=O)OC(C)(C)C(F)(F)F)C(=O)N4C3)cc(-c3ccccn3)n2)cc1` [Compound 1021, 1,1,1-trifluoro-2-methylpropan-2-yl ((2R,6S,7R,9R,13aS,14aR,16aS,Z)-2-((6-(4-isopropoxyphenyl)-[2,2′-bipyridin]-4-yl)oxy)-7,9-dimethyl-14a-(((1-methylcyclopropyl)sulfonyl)carbamoyl)-5,16-dioxo-1,2,3,5,6,7,8,9,10,11,13a,14,14a,15,16,16a-hexadecahydrocyclopropa[e]pyrrolo[1,2-a][1,4]diazacyclopentadecin-6-yl)carbamate], which EC50 (HCV GT1a(H77) replicon; read-out: LE_1a (EC50, range)) is on record?
Answer: 1.01 to 5 nM

Question: What about the EC50 (HCV GT1b(Con1) replicon; read-out: LE_1b (EC50, range)) of the same molecule?
Answer: 0.51 to 1 nM

Question: Which EC50 (HCV GT1a(H77) replicon; read-out: LE_1a (EC50, range)) does the source give for `CC(C)Oc1ccc(-c2cc(O[C@@H]3C[C@H]4C(=O)N[C@]5(C(=O)NS(=O)(=O)C6(C)CC6)C[C@H]5/C=C\CC[C@H](C)C[C@@H](C)[C@H](NC(=O)OC(C)(C)C(F)(F)F)C(=O)N4C3)cc(-c3ccccn3)n2)cc1` [Compound 1022, 1,1,1-trifluoro-2-methylpropan-2-yl ((2R,6S,7R,9S,13aS,14aR,16aS,Z)-2-((6-(4-isopropoxyphenyl)-[2,2′-bipyridin]-4-yl)oxy)-7,9-dimethyl-14a-(((1-methylcyclopropyl)sulfonyl)carbamoyl)-5,16-dioxo-1,2,3,5,6,7,8,9,10,11,13a,14,14a,15,16,16a-hexadecahydrocyclopropa[e]pyrrolo[1,2-a][1,4]diazacyclopentadecin-6-yl)carbamate] here?
Answer: 5.01 to 35 nM

Question: What about the EC50 (HCV GT1b(Con1) replicon; read-out: LE_1b (EC50, range)) of the same molecule?
Answer: 1.01 to 5 nM

Source: US9334279B2, “Hepatitis C virus inhibitors” (BRISTOL-MYERS SQUIBB COMPANY, priority 2012, dated 2016)
